Drawing on US8822503B2, “2-pyridone compounds” (Taisho Pharmaceutical Co., Ltd, priority 2009, dated 2014), this text covers EC50 for 31 compounds.

The assay addresses T1, human liver GK (Homo sapiens, UniProt P35557).
T1 construct: GST (glutathione S-transferase) (N); made in house; host or cells: E. coli
T1 sequence (P35557 1-466 isoform P35557-2): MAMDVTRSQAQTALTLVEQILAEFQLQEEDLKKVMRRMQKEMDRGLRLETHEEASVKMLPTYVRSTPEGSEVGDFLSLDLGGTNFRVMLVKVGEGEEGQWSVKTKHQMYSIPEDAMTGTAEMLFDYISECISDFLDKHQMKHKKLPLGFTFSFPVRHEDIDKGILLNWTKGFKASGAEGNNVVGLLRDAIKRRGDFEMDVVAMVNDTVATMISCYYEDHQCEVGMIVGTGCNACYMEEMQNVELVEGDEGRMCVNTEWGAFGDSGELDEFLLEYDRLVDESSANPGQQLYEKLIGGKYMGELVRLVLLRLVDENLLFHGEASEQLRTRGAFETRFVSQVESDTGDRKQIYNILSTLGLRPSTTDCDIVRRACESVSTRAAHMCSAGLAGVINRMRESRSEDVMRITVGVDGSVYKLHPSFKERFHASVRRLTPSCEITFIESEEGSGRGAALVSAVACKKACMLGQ
The assay can be described thus: GK activation test. Type of assay: biochemical. As to conditions: test compound concentration needed to activate 50% of maximum activation ability; 4 mM 14C-labeled glucose, 2 mM ATP, room temperature, 20 minutes. The method in brief: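 GST-tagged human liver GK from E. coli (0.24 μg/well) with 4 mM 14C-glucose, 2 mM ATP in Hepes-KOH pH 7.1, KCl, MgCl2, DTT, 1% DMSO, 20 min room temperature. Labeled glucose 6-phosphate captured on anion resin, eluted and counted. EC50 = concentration giving half of maximal activation.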
In general, EC50 refers to the concentration that produces a half-maximal response. Low readings indicate a more potent agent, high ones a less potent agent. For the compound `Cc1cc(C(C[C@H]2CCC(=O)N2)c2ccc(C3CC3)c(=O)[nH]2)ccc1C(F)F` (single isomer, unassigned) [Example 4-231], the concentration for a half-maximal effect (EC50) is 10 to 500 nM.

For the compound `CC(C)c1ccc(C(C[C@H]2CCC(=O)N2)c2ccc(C3CC3)c(=O)[nH]2)cc1Cl` (single isomer, unassigned) [Example 4-321], the EC50 lay in the range of 500 to 3000 nM.

Consider `Cc1ccc(C(CC2CCOCC2)c2ccc(S(C)(=O)=O)cc2)[nH]c1=O` (stereo not shown) [Example 2-19, 3-Methyl-6-{1-[4-(methylsulfonyl)phenyl]-2-(tetrahydro-2H-pyran-4-yl)ethyl}pyridin-2(1H)-one], for which the EC50 lay within 3000 to 10000 nM.

In turn, `Cc1ccc(/C(=C\[C@H]2CCC(=O)N2)c2ccc(Cl)c(=O)[nH]2)cc1C` [Example 4-23, 3-Chloro-6-{(E)-1-(3,4-dimethylphenyl)-2-[(2R)-5-oxopyrrolidin-2-yl]ethenyl}pyridin-2(1H)-one] registered an EC50 of 500 to 3000 nM.

Consider `CC(=O)N1CCC(/C=C(\c2ccc(S(C)(=O)=O)cc2)c2ccc(C3CC3)c(=O)[nH]2)CC1` [Example 4-43, 6-{(E)-2-(1-Acetylpiperidin-4-yl)-1-[4-(methylsulfonyl)phenyl]ethenyl}-3-cyclopropylpyridin-2(1H)-one], for which the EC50 fell in the range of 3000 to 10000 nM.

On to `COc1ccc(/C(=C\[C@H]2CCC(=O)N2)c2ccc(C3CC3)c(=O)[nH]2)cc1C(F)(F)F` [Example 4-134, 3-Cyclopropyl-6-{(E)-1-[4-methoxy-3-(trifluoromethyl)phenyl]-2-[(2R)-5-oxopyrrolidin-2-yl]ethenyl}pyridin-2(1H)-one], for which the EC50 lay within 10 to 500 nM.

On to `C[S+]([O-])c1ccc(/C(=C\[C@H]2CCC(=O)N2)c2ccc(Cl)c(=O)[nH]2)cc1` (stereo partly drawn) [Example 4-158, 3-Chloro-6-{(E)-1-[4-(methylsulfinyl)phenyl]-2-[(2R)-5-oxopyrrolidin-2-yl]ethenyl}pyridin-2(1H)-one], for which the concentration giving a half-maximal response (EC50) lay within 3000 to 10000 nM.

Compound `CCc1ccc(/C(=C/[C@H]2CCC(=O)C2)c2ccc(SCCCN(CC)CC)c(Cl)c2)[nH]c1=O` [Example 1-77, 6-{(E)-1-(3-Chloro-4-{[3-(diethylamino)propyl]sulfanyl}phenyl)-2-[(1S)-3-oxocyclopentyl]ethenyl}-3-ethylpyridin-2(1H)-one] came in with an EC50 of 10 to 500 nM.

For `Cn1cc(-c2ccc(/C(=C/[C@H]3CCC(=O)N3)c3ccc(C(C)(C)C)cc3)[nH]c2=O)cn1` [Example 4-183, 6-{(E)-1-(4-tert-Butylphenyl)-2-[(2R)-5-oxopyrrolidin-2-yl]ethenyl}-3-(1-methyl-1H-pyrazol-4-yl)pyridin-2(1H)-one], the concentration giving a half-maximal response (EC50) fell in the range of 10 to 500 nM.

`Cc1ccc(/C(=C/C2CCCC2)c2ccc(S(=O)(=O)N(C)CCO)cc2)[nH]c1=O` [Example 1-15, 4-[(E)-2-Cyclopentyl-1-(5-methyl-6-oxo-1,6-dihydropyridin-2-yl)ethenyl]-N-(2-hydroxyethyl)-N-methylbenzenesulfonamide] had an EC50 of 10 to 500 nM.

In turn, `O=c1[nH]c(/C(=C/C2CCCC2)c2ccc(CCCCO)cc2)ccc1C(F)(F)F` [Example 1-38, 6-{(E)-2-Cyclopentyl-1-[4-(4-hydroxybutyl)phenyl]ethenyl}-3-(trifluoromethyl)pyridin-2(1H)-one] displayed an EC50 of 500 to 3000 nM.

`CC(C)(C)c1ccc(/C(=C\Cn2ccccc2=O)c2ccc(Cl)c(=O)[nH]2)cc1` [Example 6-11, 6-[(1E)-1-(4-tert-Butylphenyl)-3-(2-oxopyridin-1(2H)-yl)prop-1-en-1-yl]-3-chloropyridin-2(1H)-one] came in with a half-maximal effective concentration (EC50) of 500 to 3000 nM.

In the case of `O=C1CC[C@H](/C=C(\c2ccc(C(F)(F)F)nc2)c2ccc(C3CC3)c(=O)[nH]2)N1` [Example 4-108, 3-Cyclopropyl-6-{(E)-2-[(2R)-5-oxopyrrolidin-2-yl]-1-[6-(trifluoromethyl)pyridin-3-yl]ethenyl}pyridin-2(1H)-one], the half-maximal effective concentration (EC50) lay within 500 to 3000 nM.

Turning to `CSc1ccc(/C(=C/[C@H]2CCC(=O)N2)c2ccc(C(C)(C)C)cc2)[nH]c1=O` [Example 4-206, 6-{(E)-1-(4-tert-Butylphenyl)-2-[(2R)-5-oxopyrrolidin-2-yl]ethenyl}-3-(methylsulfanyl)pyridin-2(1H)-one], the EC50 was in the range of 10 to 500 nM.

In turn, `CC(C)Oc1ccc(/C(=C\[C@H]2CCC(=O)N2)c2ccc(C3CC3)c(=O)[nH]2)cc1F` [Example 4-275, 3-Cyclopropyl-6-{(E)-1-[3-fluoro-4-(propan-2-yloxy)phenyl]-2-[(2R)-5-oxopyrrolidin-2-yl]ethenyl}pyridin-2(1H)-one] registered an EC50 of 10 to 500 nM.

For the compound `O=C1CC[C@H](CC(c2ccc(OC(F)F)c(Cl)c2)c2ccc(C3CC3)c(=O)[nH]2)N1` (single isomer, unassigned) [Example 4-356], the EC50 is 10 to 500 nM.

With `CCOc1ccc(C(C[C@H]2CCC(=O)N2)c2ccc(Cl)c(=O)[nH]2)cc1` (single isomer, unassigned) [Example 4-235], the half-maximal effective concentration (EC50) was 3000 to 10000 nM.

As to `O=C1CC[C@H](/C=C(\c2ccc(OCC(F)(F)F)c(Cl)c2)c2ccc(C3CC3)c(=O)[nH]2)N1` [Example 4-270, 6-{(E)-1-[3-Chloro-4-(2,2,2-trifluoroethoxy)phenyl]-2-[(2R)-5-oxopyrrolidin-2-yl]ethenyl}-3-cyclopropylpyridin-2(1H)-one], the EC50 fell in the range of 10 to 500 nM.

Turning to `CN1CCC(C/C=C(\c2ccc(C(C)(C)C)cc2)c2ccc(Cl)c(=O)[nH]2)C1=O` (stereo not shown) [Example 6-19, 6-[(1E)-1-(4-tert-Butylphenyl)-3-(1-methyl-2-oxopyrrolidin-3-yl)prop-1-en-1-yl]-3-chloropyridin-2(1H)-one], the half-maximal effective concentration (EC50) is 500 to 3000 nM.

On to `CSc1ccc(/C(=C\CC2CCOC2)c2ccc(C3CC3)c(=O)[nH]2)cc1` (stereo not shown) [Example 1-49, 3-Cyclopropyl-6-{(1E)-1-[4-(methylsulfanyl)phenyl]-3-(tetrahydrofuran-3-yl)prop-1-en-1-yl}pyridin-2(1H)-one], for which the EC50 was 500 to 3000 nM.

For `CC(C)Oc1ccc(/C(=C\[C@H]2CCC(=O)N2)c2ccc(C3CC3)c(=O)[nH]2)cc1` [Example 4-276, 3-Cyclopropyl-6-{(E)-2-[(2R)-5-oxopyrrolidin-2-yl]-1-[4-(propan-2-yloxy)phenyl]ethenyl}pyridin-2(1H)-one], the EC50 fell in the range of 10 to 500 nM.

Consider `CC(=O)Nc1cccc(/C(=C\[C@H]2CCC(=O)N2)c2ccc(Cl)c(=O)[nH]2)c1` [Example 4-163, N-(3-{(E)-1-(5-Chloro-6-oxo-1,6-dihydropyridin-2-yl)-2-[(2R)-5-oxopyrrolidin-2-yl]ethenyl}phenyl)acetamide], for which the EC50 fell in the range of 3000 to 10000 nM.

In the case of `CCN(CC)CCCS(=O)(=O)c1ccc(/C(=C\C2CCCC2)c2ccc(C)c(=O)[nH]2)cc1Cl` [Example 1-25, 6-[(E)-1-(3-Chloro-4-{[3-(diethylamino)propyl]sulfonyl}phenyl)-2-cyclopentylethenyl]-3-methylpyridin-2(1H)-one], the EC50 was 500 to 3000 nM.

Turning to `CCCOc1ccc(/C(=C\[C@H]2CCC(=O)N2)c2ccc(C3CC3)c(=O)[nH]2)cc1` [Example 4-279, 3-Cyclopropyl-6-[(E)-2-[(2R)-5-oxopyrrolidin-2-yl]-1-(4-propoxyphenyl)ethenyl]pyridin-2(1H)-one], the concentration giving a half-maximal response (EC50) was in the range of 10 to 500 nM.

Take `CCc1ccc(/C(=C/[C@H]2CCC(=O)C2)c2ccc(S(=O)(=O)C3CC3)cc2)[nH]c1=O` [Example 1-62, 6-{(E)-1-[4-(Cyclopropylsulfonyl)phenyl]-2-[(1S)-3-oxocyclopentyl]ethenyl}-3-ethylpyridin-2(1H)-one]: the EC50 was 10 to 500 nM.

Turning to `O=c1[nH]c(/C(=C/C2CCCC2)c2ccc(SC3CC3)cc2)ccc1-c1ccccc1` [Example 1-29, 6-{(E)-2-Cyclopentyl-1-[4-(cyclopropylsulfanyl)phenyl]ethenyl}-3-phenylpyridin-2(1H)-one], the concentration for a half-maximal effect (EC50) lay within 10 to 500 nM.

The compound `Cc1ccc(/C(=C/C2CCCC2)c2ccc(S(C)(=O)=O)c(Cl)c2)[nH]c1=O` [Example 1-19, 6-{(E)-1-[3-Chloro-4-(methylsulfonyl)phenyl]-2-cyclopentylethenyl}-3-methylpyridin-2(1H)-one] registered an EC50 of 10 to 500 nM.

For `CC(C)(C)c1ccc(/C(=C\CCN2CCCC2=O)c2ccc(Cl)c(=O)[nH]2)cc1` [Example 6-27, 6-[(1E)-1-(4-tert-Butylphenyl)-4-(2-oxopyrrolidin-1-yl)but-1-en-1-yl]-3-chloropyridin-2(1H)-one], the EC50 is 500 to 3000 nM.

With `O=C1CC[C@H](/C=C(\c2ccc(S(=O)(=O)C3CC3)c(Cl)c2)c2ccc(Cl)c(=O)[nH]2)N1` [Example 4-59, 3-Chloro-6-{(E)-1-[3-chloro-4-(cyclopropylsulfonyl)phenyl]-2-[(2R)-5-oxopyrrolidin-2-yl]ethenyl}pyridin-2(1H)-one], the 50% effective concentration (EC50) is 10 to 500 nM.

Turning to `CCOc1ccc(/C(=C\C2CCOCC2)c2ccc(C3CC3)c(=O)[nH]2)cc1` [Example 1-52, 3-Cyclopropyl-6-[(E)-1-(4-ethoxyphenyl)-2-(tetrahydro-2H-pyran-4-yl)ethenyl]pyridin-2(1H)-one], the EC50 lay in the range of 500 to 3000 nM.

`CC(C)(C)c1ccc(/C(=C\[C@H]2CCC(=O)N2)c2ccc(CCc3ccccc3)c(=O)[nH]2)cc1` [Example 4-196, 6-{(E)-1-(4-tert-Butylphenyl)-2-[(2R)-5-oxopyrrolidin-2-yl]ethenyl}-3-(2-phenylethyl)pyridin-2(1H)-one] gave an EC50 of 10 to 500 nM.
